The source of these data is ChEMBL document CHEMBL1130934, “Enantioselective synthesis and pharmacology of 11-hydroxy-(1'S,2'R)-dimethylheptyl-delta 8-THC” (Bioorg Med Chem Lett, 1998).

For experiment [1], the species on record is Mus musculus. The experiment in a line: Compound was evaluated in mouse model for cannabimimetic activity, expressed as as effective dose for antinociception (TF). The class given is functional.
The target in experiment [2] is T1, Cannabinoid receptor 1 (Rattus norvegicus, UniProt P20272). The experiment in a line: Binding affinity for the Cannabinoid receptor using [3H]CP-55940 as radioligand.
T1 sequence (P20272 whole entry): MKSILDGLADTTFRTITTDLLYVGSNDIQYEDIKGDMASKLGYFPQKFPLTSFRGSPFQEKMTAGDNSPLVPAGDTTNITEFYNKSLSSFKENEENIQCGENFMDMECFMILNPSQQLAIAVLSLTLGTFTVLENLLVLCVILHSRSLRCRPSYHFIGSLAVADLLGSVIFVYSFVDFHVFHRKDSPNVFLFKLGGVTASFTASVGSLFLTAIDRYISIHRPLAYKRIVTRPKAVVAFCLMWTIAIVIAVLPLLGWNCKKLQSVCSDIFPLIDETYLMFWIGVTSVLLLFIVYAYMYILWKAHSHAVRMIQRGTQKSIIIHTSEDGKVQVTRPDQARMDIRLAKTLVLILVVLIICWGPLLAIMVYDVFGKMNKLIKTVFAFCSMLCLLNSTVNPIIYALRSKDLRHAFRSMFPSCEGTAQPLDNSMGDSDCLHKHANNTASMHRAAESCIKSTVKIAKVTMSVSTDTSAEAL
For experiment [3], the species on record is Mus musculus. Briefly: Compound was evaluated in mouse model for cannabimimetic activity, expressed as effective dose for spontaneous activity(SA). The class given is functional.
The species named for experiment [4] is Mus musculus. The experiment in a line: Compound was evaluated in mouse model for cannabimimetic activity, expressed as as effective dose for hypothermia (rectal temperature, RT). The class given is functional.
Experiment [5] deals with T1, Cannabinoid receptor 1. Briefly: Binding affinity for the cannabinoid brain receptor (CB1) using [3H]CP-55940.

As usually defined, the ED50 is the dose that gives a 50% effect, or the effect in half of the subjects. Read a high ED50 as a need for a large dose. In general, Ki refers to the dissociation constant of the complex between target and ligand, obtained from inhibition or displacement. Low values mean tighter binding, high ones weaker binding. As to `CCCCCCC(C)(C)c1cc(O)c2c(c1)OC(C)(C)[C@@H]1CC=C(CO)C[C@@H]21`, the median effective dose (ED50) in the experiment listed under Mus musculus [1] was found to be 0.02 µmol/kg; in the experiment filed under Mus musculus [3], 0.01 µmol/kg; in the experiment filed under Mus musculus [4], 0.05 µmol/kg. Further, the inhibition constant (Ki) at Cannabinoid receptor 1 [2] stood at 0.73 nM.

Consider `CCCCCCC(C)(C)c1cc(O)c2c(c1)OC(C)(C)[C@@H]1CC=C(C)C[C@@H]21`, for which the Ki on Cannabinoid receptor 1 [5] was determined as 0.77 nM. In addition, the ED50 was determined as 0.14 µmol/kg in the experiment listed under Mus musculus [1], 0.27 µmol/kg in the experiment filed under Mus musculus [3] and 0.15 µmol/kg in the experiment filed under Mus musculus [4].

Take `CCCCC[C@@H](C)[C@H](C)c1cc(O)c2c(c1)OC(C)(C)[C@@H]1CC=C(C)C[C@@H]21`: affinity at Cannabinoid receptor 1 [5] was put at a Ki of 0.46 nM. The figures for the ED50 in the experiment filed under Mus musculus [1], in the experiment filed under Mus musculus [3] and in the experiment listed under Mus musculus [4] were 0.03 µmol/kg, 0.03 µmol/kg and 0.07 µmol/kg, respectively.

`CCCCC[C@@H](C)[C@H](C)c1cc(O)c2c(c1)OC(C)(C)[C@@H]1CC=C(CO)C[C@@H]21` displayed a Ki at Cannabinoid receptor 1 [5] of 0.49 nM. Moreover, the results for the 50% effective dose (ED50) in the experiment filed under Mus musculus [1], in the experiment filed under Mus musculus [3] and in the experiment listed under Mus musculus [4] were 0.03 µmol/kg, 0.01 µmol/kg and 0.02 µmol/kg, respectively.
